Experimental data taken from patent US6822102B2, “Dihydrobenzopyrans, dihydrobenzothiopyrans, and tetrahydroquinolines for the treatment of COX-2 mediated disorders” (Pharmacia Corporation, priority 2000, dated 2004).

Columns and labels:
COX-2 [1] = target: T1, COX-2 (UniProt P35354); assay: Fast assay for COX-2 activity (PGE2 ELISA, recombinant enzyme); assay type: biochemical, human or murine; details: column marked *; footnote not given
T1 sequence (P35354 1-604): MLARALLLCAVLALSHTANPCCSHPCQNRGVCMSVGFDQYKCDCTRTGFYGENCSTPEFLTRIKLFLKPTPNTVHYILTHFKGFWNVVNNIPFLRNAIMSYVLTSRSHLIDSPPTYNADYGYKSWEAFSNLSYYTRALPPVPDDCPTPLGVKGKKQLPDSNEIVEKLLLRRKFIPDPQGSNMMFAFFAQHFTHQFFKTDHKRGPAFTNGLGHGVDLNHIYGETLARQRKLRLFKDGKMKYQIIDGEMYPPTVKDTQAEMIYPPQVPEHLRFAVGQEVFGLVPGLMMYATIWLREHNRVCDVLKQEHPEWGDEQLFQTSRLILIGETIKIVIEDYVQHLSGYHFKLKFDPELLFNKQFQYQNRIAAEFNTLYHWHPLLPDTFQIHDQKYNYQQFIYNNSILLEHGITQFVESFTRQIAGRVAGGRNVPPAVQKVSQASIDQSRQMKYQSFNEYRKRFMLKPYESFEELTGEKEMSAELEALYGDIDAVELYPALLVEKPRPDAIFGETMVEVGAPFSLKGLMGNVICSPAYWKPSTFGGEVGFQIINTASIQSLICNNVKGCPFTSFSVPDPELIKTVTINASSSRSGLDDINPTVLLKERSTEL
Description: (§1) The COX-2 inhibition activity of the compounds of this invention illustrated in the Examples was determined by the following methods.
(§2) a. Preparation of recombinant COX baculoviruses
(§3) Recombinant COX-1 and COX-2 were prepared as described by Gierse et al, [J. Biochem., 305, 479-84 (1995)]. A 2.0 kb fragment containing the coding region of either human or murine COX-1 or human or murine COX-2 was cloned into a BamHI site of the baculovirus transfer vector pVL1393 (Invitrogen) to generate the baculovirus transfer vectors for COX-1 and COX-2 in a manner similar to the method of D. R. O'Reilly et al (Baculovirus Expression Vectors: A Laboratory Manual (1992)). Recombinant baculoviruses were isolated by transfecting 4 μg of baculovirus transfer vector DNA into SF9 insect cells (2×10^8) along with 200 ng of linearized baculovirus plasmid DNA by the calcium phosphate method. See M. D. Summers and G. E. Smith, A Manual of Methods for Baculovirus Vectors and Insect Cell Culture Procedures, Texas Agric. Exp. Station Bull. 1555 (1987). Recombinant viruses were purified by three rounds of plaque purification and high titer (10^7-10^8 pfu/mL) stocks of virus were prepared. For large scale production, SF9 insect cells were infected in 10 liter fermentors (0.5×10^6/mL) with the recombinant baculovirus stock such that the multiplicity of infection was 0.1. After 72 hours the cells were centrifuged and the cell pellet homogenized in Tris/Sucrose (50 mM: 25%, pH 8.0) containing 1% 3-[(3-cholamidopropyl) dimethylammino]-1-propanesulfonate (CHAPS). The homogenate was centrifuged at 10,000×G for 30 minutes, and the resultant supernatant was stored at −80° C. before being assayed for COX activity.
(§4) c. Fast assay for COX-1 and COX-2 activity
(§5) COX activity was assayed as PGE2 formed/μg protein/time using an ELISA to detect the prostaglandin released. CHAPS-solubilized insect cell membranes containing the appropriate COX enzyme were incubated in a potassium phosphate buffer (0.05 M Potassium phosphate, pH 7.5, 2 μM phenol, 1 μM heme, 300 μM epinephrine) with the addition of 20 μl of 100 μM arachidonic acid (10 μM). Compounds were pre-incubated with the enzyme for 10 minutes at 25° C. prior to the addition of arachidonic acid. Any reaction between the arachidonic acid and the enzyme was stopped after two minutes at 37° C./room temperature by transferring 40 μl of reaction mix into 160 μl ELISA buffer and 25 μM indomethacin. The PGE2 formed was measured by standard ELISA technology (Cayman Chemical).

COX-1 [2] = target: COX-1 (UniProt P23219); assay: Fast assay for COX-1 activity (PGE2 ELISA, recombinant enzyme); assay type: biochemical, human or murine; details: column marked *; footnote not given
Description: as §2, §3, §4, §5

COX-2 [3] = target: T1, COX-2; assay: Assay for COX-2 activity (PGE2 ELISA, recombinant enzyme); assay type: biochemical, human or murine; details: without asterisk
Description: as §1, §2, §3
(§6) b. Assay for COX-1 and COX-2 activity
(§7) COX activity was assayed as PGE2 formed/μg protein/time using an ELISA to detect the prostaglandin released. CHAPS-solubilized insect cell membranes containing the appropriate COX enzyme were incubated in a potassium phosphate buffer (50 mM, pH 8.0) containing epinephrine, phenol, and heme with the addition of arachidonic acid (10 μM). Compounds were pre-incubated with the enzyme for 10-20 minutes prior to the addition of arachidonic acid. Any reaction between the arachidonic acid and the enzyme was stopped after ten minutes at 37° C./room temperature by transferring 40 μl of reaction mix into 160 μl ELISA buffer and 25 μM indomethacin. The PGE2 formed was measured by standard ELISA technology (Cayman Chemical).

COX-1 [4] = target: COX-1 (UniProt P23219); assay: Assay for COX-1 activity (PGE2 ELISA, recombinant enzyme); assay type: biochemical, human or murine; details: without asterisk
Description: as §2, §3, §6, §7

carrageenan foot edema = assay: Rat carrageenan foot pad edema test; assay type: in vivo; details: oral, male Sprague-Dawley rats, 3 h after carrageenan
Description: Rat Carrageenan Foot Pad Edema Test The carrageenan foot edema test was performed with materials, reagents and procedures essentially as described by Winter, et al., (Proc. Soc. Exp. Biol. Med., 111, 544 (1962)). Male Sprague-Dawley rats were selected in each group so that the average body weight was as close as possible. Rats were fasted with free access to water for over sixteen hours prior to the test. The rats were dosed orally (1 mL) with compounds suspended in vehicle containing 0.5% methylcellulose and 0.025% surfactant, or with vehicle alone. One hour later a subplantar injection of 0.1 mL of 1% solution of carrageenan/sterile 0.9% saline was administered and the volume of the injected foot was measured with a displacement plethysmometer connected to a pressure transducer with a digital indicator. Three hours after the injection of the carrageenan, the volume of the foot was again measured. The average foot swelling in a group of drug-treated animals was compared with that of a group of placebo-treated animals and the percentage inhibition of edema was determined (Otterness and Bliven, Laboratory Models for Testing NSAIDs, in Non-steroidal Anti-Inflammatory Drugs, (J. Lombardino, ed. 1985)).

Analgesia (Table I) = assay type: in vivo

| SMILES | melting point | IC50 (COX-2 [1]) | IC50 (COX-1 [2]) | IC50 (COX-2 [3]) | IC50 (COX-1 [4]) | RAT PAW EDEMA % Inhibition @ 30 mg/kg body weight (carrageenan foot edema) | ANALGESIA % Inhibition @ 30 mg/kg body weight (Analgesia (Table I)) |
| --- | --- | --- | --- | --- | --- | --- | --- |
| O=C(O)[C@@H]1Cc2cc(Cl)cc(Cl)c2S[C@@H]1C(F)(F)F (racemic) [Example 1, rel-(2R, 3S)-6,8-dichloro-3,4-dihydro-2-(trifluoromethyl)-2H-1-benzothiopyran-3-carbolic acid] | 165 to 170.2 °C | – | – | – | – | – | – |
| O=C(O)[C@@H]1Cc2c(cc(Cl)c(Cl)c2Cl)O[C@@H]1C(F)(F)F (racemic) [Example 5, rel-(2R,3S)-3,4-dihydro-5,6,7-trichloro-2-(trifluoromethyl)-2H-1-benzopyran-3-carboxylic acid] | 207.3 to 208.5 °C | 0.4 µM | > 100 µM | 0.4 µM | > 100 µM | – | – |
| O=C(O)[C@@H]1Cc2cc(Cl)c(Cl)c(Cl)c2O[C@@H]1C(F)(F)F (racemic) [Example 7, rel-(2R, 3S)-3,4-dihydro-6,7,8-trichloro-2-(trifluoromethyl)-2H-1-benzopyran-3-carboxylic acid] | 205.2 to 208.1 °C | 0.6 µM | 54 µM | 0.7 µM | > 100 µM | – | – |
| O=C(O)[C@@H]1Cc2c(Cl)ccc(Cl)c2O[C@@H]1C(F)(F)F (racemic) [Example 8, rel-(2R,3S)-5,8-dichloro-3,4-dihydro-2-(trifluoromethyl)-2H-1-benzopyran-3-carboxylic acid] | 185.7 to 188.9 °C | 2.3 µM | 8.7 µM | 2 µM | 22 µM | – | – |
| O=C(O)[C@@H]1Cc2cc(Cl)cc(Cl)c2S[C@@H]1C(F)(F)F (relative stereo) [Example 1, rel-(2R, 3S)-6,8-dichloro-3,4-dihydro-2-(trifluoromethyl)-2H-1-benzothiopyran-3-carbolic acid] | – | 0.6 µM | 0.6 µM | 0.3 µM | 0.6 µM | – | – |
| O=C(O)[C@@H]1Cc2cc(Cl)cc(Cl)c2O[C@@H]1C(F)(F)F [Example 2, (2S,3R)-6,8-dichloro-3,4-dihydro-2-(trifluoromethyl)-2H-1-benzopyran-3-carboxylic acid] | 100.3 to 101.1 °C | 0.3 µM | 1 µM | 0.2 µM | 2.8 µM | 52% | 56% |
| CC(C)(C)c1cc2c(cc1Cl)C[C@@H](C(=O)O)[C@@H](C(F)(F)F)O2 [Example 4, (2S,3R)-6-chloro-3,4-dihydro-7-(1,1-dimethylethyl)-2-(trifluoromethyl)-2H-1-benzopyran-3-carboxylic acid] | 115.8 to 120.9 °C | 1.6 µM | 1.3 µM | > 100 µM | 12 µM | – | – |
| O=C(O)[C@@H]1Cc2cc(Cl)ccc2N[C@@H]1C(F)(F)F [Example 6, (2S,3R)-6-Chloro-1,2,3,4-tetrahydro-2-(trifluoromethyl)-3-quinolinecarboxylic acid] | 154.4 to 154.5 °C | 2.6 µM | > 100 µM | 25 µM | > 100 µM | – | – |

Second part, led by results:

| melting point | IC50 (COX-2 [1]) | IC50 (COX-1 [2]) | IC50 (COX-2 [3]) | IC50 (COX-1 [4]) | SMILES | RAT PAW EDEMA % Inhibition @ 30 mg/kg body weight (carrageenan foot edema) | ANALGESIA % Inhibition @ 30 mg/kg body weight (Analgesia (Table I)) |
| --- | --- | --- | --- | --- | --- | --- | --- |
| 173 to 174.4 °C | 0.2 µM | 5.7 µM | 0.2 µM | > 100 µM | O=C(O)[C@@H]1Cc2c(ccc(Cl)c2Cl)O[C@@H]1C(F)(F)F (racemic) [Example 3, rel-(2R, 3S)-5,6-dichloro-3,4-dihydro-2-(trifluoromethyl)-2H-1-benzopyran-3-carboxylic acid] | – | – |
| 169 to 170.4 °C | 4.8 µM | > 100 µM | 18 µM | > 100 µM | N#Cc1ccc2c(c1)C[C@@H](C(=O)O)[C@@H](C(F)(F)F)O2 (racemic) [Example 10, rel-(2R,3S)-6-cyano-3,4-dihydro-2-(trifluoromethyl)-2H-1-benzopyran-3-carboxylic acid] | – | – |
| 120.1 to 120.8 °C | 0.6 µM | 65 µM | 0.4 µM | > 100 µM | O=C(O)[C@@H]1Cc2cc(OC(F)(F)F)ccc2O[C@@H]1C(F)(F)F (racemic) [Example 11, rel-(2R,3S)-3,4-dihydro-6-trifluoromethoxy-2-(trifluoromethyl)-2H-1-benzopyran-3-carboxylic acid] | – | – |
| 118.1 to 119.2 °C | 0.5 µM | > 100 µM | 29 µM | > 100 µM | O=C(O)[C@@H]1Cc2cc(Cl)ccc2O[C@@H]1C(F)(F)F [Example 9, (2S,3R)-6-chloro-3,4-dihydro-2-(trifluoromethyl)-2H-1-benzopyran-3-carboxylic acid] | – | – |
